For data set [1], the system named is HBV DNA. Put plainly: Antiviral activity: inhibition of HBV DNA in supernatant of HepG 2.2.15 cells (dot blot hybridization). The data set is classed as cell-based, hepatitis B virus (HBV). To be noted: for IC50: Hepatitis B virus, HepG2.2.15, 192 h, HepG 2.2.15 cells, 8 days incubation, hepatitis B-specific band reduced by 50% vs untreated sample, read-out: IC50 (half-maximum inhibitory concentration, HBV DNA); for SI: selectivity index, from TC50 and IC50 in HepG 2.2.15 cells. How it is done:
The antiviral activity of the compounds according to the present invention was determined by the methods described by Sells et al. (M. A. Sells, M. L. Chen, g. Acs, Proc. Natl. Acad. Sci., 1987, 84, 1005-1009) and Korba et al., (B. E. Korba, J. L. Gerin, Antiviral Research, 1992, 19. 55-70).
(§1) The antiviral tests were carried out in 96-well microtiter plates. Only growth medium and HepG 2.2.15 cells were added to the first vertical row of the plate as a blank control.
Stock solutions of the test compounds (50 mM) were first dissolved in DMSO, and further dilutions were prepared in the growth medium of HepG 2.2.15 cell. The compounds according to the present invention, usually in a test concentration of 100 μg/ml (1st test concentration), were pipetted into each well of the second vertical test row of the microtiter plate and subsequently diluted with growth medium plus 2% of foetal calf serum (volume 25 μl) by 2 fold each time, up to 2^10-fold.
225 μl of a HepG 2.2.15 cell suspension (5×10^4 cells/ml) in growth medium plus 2% foetal calf serum were then added to each well of the 96-well microtiter plate.
The test mixture was incubated at 37° C., 5% CO2 for 4 days. The supernatant was subsequently siphoned off and discarded, and 225 μl of freshly prepared growth medium were added to each well. The compounds according to the present invention were added again in a volume 25 μl. The mixture were incubated from another 4 days.
The supernatants were subsequently harvested and siphoned in vacuum onto 96-well dot blot chambers covered with a nylon membrane (in accordance with the instructions of the manufacturer). […]
The viral DNA of the treated HepG 2.2.15 cells on the nylon filter membrane was usually determined using non-radioactive digoxigenin-labelled hepatitis B-specific DNA probes which were in each case labelled with digoxigenin, purified and used for hybridization in accordance with the instructions of the manufacturer.
Briefly speaking, the prehybridization and hybridization were carried out in 5×SSC, 1× blocking agent, 0.1% N-lauroylsacosine, 0.02% SDS and 100 μg of DNA from herring sperm. […] The filler membrane was subsequently washed and the antibodies against digoxigenin of HBV DNA were determined.
The digoxigenin-labeled DNA was detected immunologically in accordance with the instructions of the manufacturer.
Briefly speaking, the filler membrane were washed and prehybridized with a blocking agent (in accordance with the instructions of the manufacturer). […] The chemiluminescent signals of the Hepatitis B-specific DNA were measured by exposing of the filters to an X-ray film (incubation for 10 minutes to 2 hours depending on the signal strength) to determine the half-maximum inhibitory concentration (IC50). […]

Data set [2] can be described thus: Cytotoxicity in HepG 2.2.15 cells (cell morphology under microscope after 8 days, Reed & Muench). Type of data set: cell-based. To be noted: human, pathological changes after 8 days, read-out: TC50 (half-maximum toxic concentration). How it is done:
as §1
Stock solutions of the test compounds (50 mM) were first dissolved in DMSO, and further dilutions were prepared in the growth medium of HepG 2.2.15 cell. The compounds according to the present invention, usually in a test concentration of 100 μg/ml (1st test concentration), were pipetted into each well of the second vertical test row of the microtiter plate and subsequently diluted with growth medium plus 2% of foetal calf serum (volume 25 μl) by 2 fold each time, up to 2^10-fold. […]
Substances-induced cytotoxic or cytostatic changes in HepG 2.2.15 cells were determined as changes in the cell morphology, for example under an optical microscope. […] The average degree of the pathological change and percent inhibition at each concentration were calculated, and a half-maximum toxic concentration (TC50) and a maximum non-toxic concentration TC0 were determined according to Reed & Muench methods. […]
The cytotoxicity and antiviral activity of the compounds according to the present invention were determined by the methods as described above, and the results were shown in Table 1.

On to `COC(=O)C1=C(C)NC(c2cccs2)=NC1c1ccc(F)cc1Cl` (stereo not drawn) [Example 1, methyl 2-(thien-2-yl)-4-(2-chloro-4-fluorophenyl)-6-methyl-1,4-dihyropyrimidin-5-carboxylate], for which, in data set [1], the IC50 was determined as 0.007 µM and the SI is reported as >10^5. Besides, the CC50 at 8 days in data set [2] was found to be 1100 µM.

With `COC(=O)C1=C(C)NC(c2cccs2)=NC1c1ccccc1` (stereo not drawn) [Example 4, methyl 2-(thien-2-yl)-4-phenyl-6-methyl-1,4-dihyropyrimidin-5-carboxylate], in data set [1], the IC50 amounted to 29.6 µM and the SI came out at 3.56. In addition, the CC50 at 8 days in data set [2] is 105 µM.

The values are drawn from patent publication US8106196B2, “Dihydropyrimidine compounds and their uses in manufacture of a medicament for treatment and prevention of viral diseases” (Beijing Molecule Science and Technology Co., Ltd, priority 2007, dated 2012).
